Source: publication PMC3150631 (Nature, 2011)

Molecular target: T1, UCP2 (mouse mitochondrial uncoupling protein 2) (Mus musculus, UniProt P70406)
T1 sequence (P70406 14-309): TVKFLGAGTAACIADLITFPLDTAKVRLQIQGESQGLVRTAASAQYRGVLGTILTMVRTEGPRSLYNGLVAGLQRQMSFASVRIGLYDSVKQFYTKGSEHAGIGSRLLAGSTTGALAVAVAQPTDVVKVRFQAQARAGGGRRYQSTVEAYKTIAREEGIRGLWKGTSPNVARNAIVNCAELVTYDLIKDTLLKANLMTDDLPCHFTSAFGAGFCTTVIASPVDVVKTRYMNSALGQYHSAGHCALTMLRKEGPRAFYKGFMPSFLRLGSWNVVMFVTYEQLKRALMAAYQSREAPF
Test: proton translocation in liposomes
Assay type: biochemical
Conditions: fatty-acid activated; inhibitor

## Nc1nc2c(ncn2[C@@H]2O[C@H](COP(=O)(O)OP(=O)(O)O)[C@@H](O)[C@H]2O)c(=O)[nH]1 [GDP]
  proton translocation in liposomes: it showed fatty-acid activated and GDP-inhibited proton translocation activity
